Blank lines part the entries; values can stand above or below the substance they belong to. The source made the active and inactive calls. The rule behind the calls is not given here.
What was measured:
[1] = tested on: Escherichia coli; assay: Antibacterial activity against Escherichia coli ATCC 25922 assessed as transparent well by visual inspection after 18 hrs by CLSI based-broth microdilution method; assay type: functional
[2] = tested on: Pseudomonas aeruginosa; assay: Antibacterial activity against Pseudomonas aeruginosa ATCC 27853 assessed as transparent well by visual inspection after 18 hrs by CLSI based-broth microdilution method; assay type: functional
[3] = tested on: Enterobacter sp.; assay: Antibacterial activity against Enterobacter sakazakii ATCC 29544 assessed as transparent well by visual inspection after 18 hrs by CLSI based-broth microdilution method; assay type: functional
[4] = tested on: Staphylococcus aureus; assay: Antibacterial activity against Staphylococcus aureus ATCC 29213 assessed as transparent well by visual inspection after 18 hrs by CLSI based-broth microdilution method; assay type: functional; conditions: C1 ATCC 29213
[5] = tested on: Bacillus subtilis; assay: Antibacterial activity against Bacillus subtilis ATCC 23857 assessed as transparent well by visual inspection after 18 hrs by CLSI based-broth microdilution method; assay type: functional
[6] = tested on: Staphylococcus epidermidis; assay: Antibacterial activity against Staphylococcus epidermidis ATCC 12228 assessed as transparent well by visual inspection after 18 hrs by CLSI based-broth microdilution method; assay type: functional
[7] = tested on: Staphylococcus aureus; assay: Antibacterial activity against methicillin resistant Staphylococcus aureus clinical isolate 1 assessed as transparent well by visual inspection after 18 hrs by CLSI based-broth microdilution method; assay type: functional; conditions: C1
[8] = tested on: Staphylococcus aureus; assay: Antibacterial activity against methicillin resistant Staphylococcus aureus clinical isolate 2 assessed as transparent well by visual inspection after 18 hrs by CLSI based-broth microdilution method; assay type: functional
[9] = tested on: Staphylococcus aureus; assay: Antibacterial activity against methicillin resistant Staphylococcus aureus clinical isolate 3 assessed as transparent well by visual inspection after 18 hrs by CLSI based-broth microdilution method; assay type: functional
[10] = tested on: Staphylococcus aureus; assay: Antibacterial activity against methicillin resistant Staphylococcus aureus clinical isolate 4 assessed as transparent well by visual inspection after 18 hrs by CLSI based-broth microdilution method; assay type: functional
[11] = tested on: Escherichia coli; assay: Antibacterial activity against ESBL-producing Escherichia coli clinical isolate 1 assessed as transparent well by visual inspection after 18 hrs by CLSI based-broth microdilution method; assay type: functional
[12] = tested on: Escherichia coli; assay: Antibacterial activity against ESBL-producing Escherichia coli clinical isolate 2 assessed as transparent well by visual inspection after 18 hrs by CLSI based-broth microdilution method; assay type: functional
[13] = tested on: Escherichia coli; assay: Antibacterial activity against ESBL-producing Escherichia coli clinical isolate 3 assessed as transparent well by visual inspection after 18 hrs by CLSI based-broth microdilution method; assay type: functional
[14] = tested on: Escherichia coli; assay: Antibacterial activity against ESBL-producing Escherichia coli clinical isolate 4 assessed as transparent well by visual inspection after 18 hrs by CLSI based-broth microdilution method; assay type: functional
[15] = tested on: Escherichia coli; assay: Antibacterial activity against ESBL-producing Escherichia coli clinical isolate 5 assessed as transparent well by visual inspection after 18 hrs by CLSI based-broth microdilution method; assay type: functional
[16] = tested on: Pseudomonas aeruginosa; assay: Antibacterial activity against Pseudomonas aeruginosa clinical isolate assessed as transparent well by visual inspection after 18 hrs by CLSI based-broth microdilution method; assay type: functional
[17] = tested on: Erythrocyte; assay: Haemolytic activity in human erythrocytes by optical absorption assay; assay type: ADME, cell-based
[18] = tested on: NIH3T3; assay: Cytotoxicity against mouse NIH/3T3 assessed as reduction in cell viability measured after 24 hrs by MTT assay; assay type: cell-based; conditions: nih3t3, 24 h
[19] = tested on: RAW264.7; assay: Cytotoxicity against mouse RAW264.7 assessed as reduction in cell viability measured after 24 hrs by MTT assay; assay type: cell-based; conditions: raw264.7, 24 h
[20] = tested on: HeLa; assay: Cytotoxicity against human HeLa cells assessed as reduction in cell viability measured after 24 hrs by MTT assay; assay type: cell-based
[21] = tested on: Staphylococcus aureus; assay: Bactericidal activity against Staphylococcus aureus assessed as killing effect at 2 times MIC measured at 60 mins by bacterial colony counting assay; assay type: functional; conditions: 1 h
[22] = tested on: Escherichia coli; assay: Bactericidal activity against Escherichia coli assessed as killing effect at 2 times MIC measured at 60 mins by bacterial colony counting assay; assay type: functional; conditions: 1 h
[23] = tested on: Staphylococcus aureus; assay: Bactericidal activity against Staphylococcus aureus assessed as killing effect at 1 times MIC measured at 120 mins by bacterial colony counting assay; assay type: functional, organism-based
[24] = tested on: Escherichia coli; assay: Bactericidal activity against Escherichia coli assessed as killing effect at 1 times MIC measured at 120 mins by bacterial colony counting assay; assay type: functional, organism-based
[25] = tested on: Pseudomonas aeruginosa; assay: Inhibition of biofilm formation in multidrug-resistant Pseudomonas aeruginosa at 256 uM measured after 24 hrs by crystal violet staining based assay; assay type: functional, organism-based
[26] = tested on: Cell membrane; assay: Induction of outer membrane permeabilization in Escherichia coli using NPN hydrophobic fluorescent probe at 1 to 8 times of MIC measured for 15 mins by multimode reader
[27] = tested on: Cell membrane; assay: Induction of inner membrane permeabilization in Escherichia coli ML-35 assessed as increase in ONPG at 1 to 8 times of MIC measured 100 mins by multimode reader
[28] = tested on: Erythrocyte; assay: Haemolytic activity in human erythrocytes at 256 uM by optical absorption assay; assay type: ADME, cell-based

Substance: H-PWRLSLHL-OH
MIC [1]: 16 µM
MIC [2]: 32 µM
MIC [3]: 16 µM
MIC [4]: 32 µM
MIC [5]: 16 µM
MIC [6]: 8 µM

Substance: H-PFRLRLRL-OH
MIC [1]: 8 µM
MIC [2]: 8 µM
MIC [3]: 32 µM
MIC [4]: 64 µM
MIC [5]: 8 µM
MIC [6]: 16 µM
MIC [7]: 64 µM
MIC [8]: 64 µM
MIC [9]: 64 µM
MIC [10]: 64 µM
MIC [11]: 8 µM
MIC [12]: 8 µM
MIC [13]: 8 µM
MIC [14]: 8 µM
MIC [15]: 8 µM
MIC [16]: 8 µM
Activity [17]: Non-Toxic
Activity [18]: Non-Toxic
Activity [19]: Non-Toxic
Activity [20]: Non-Toxic
Activity [21]: 100%
Activity [22]: 100%
Activity [23]: Active
Activity [24]: Active
inhibition [25]: Active
Activity [26]: Dose-Dependent Effect
Activity [27]: Active

Substance: H-PFKLSLKL-OH
MIC [1]: 32 µM
MIC [2]: 32 µM
MIC [3]: 32 µM
MIC [4]: 128 µM
MIC [5]: 16 µM
MIC [6]: 16 µM

Substance: H-PFKLSLHL-OH
MIC [1]: 32 µM
MIC [2]: 32 µM
MIC [3]: 64 µM
MIC [4]: 128 µM
MIC [5]: 32 µM
MIC [6]: 64 µM
MIC [7]: 128 µM
MIC [8]: 128 µM
MIC [9]: 128 µM
MIC [10]: 128 µM
MIC [11]: 32 µM
MIC [12]: 32 µM
MIC [13]: 32 µM
MIC [14]: 32 µM
MIC [15]: 32 µM
MIC [16]: 32 µM
Activity [28]: Toxic
inhibition [25]: Active
Activity [26]: Dose-Dependent Effect
Activity [27]: Active

Further substances by falling MIC [1], results first:

MIC [1]: 16 µM
MIC [2]: 16 µM
MIC [3]: 16 µM
MIC [4]: 64 µM
MIC [5]: 16 µM
MIC [6]: 32 µM
Substance: H-PWKLSLHL-OH

MIC [1]: 8 µM
MIC [2]: 8 µM
MIC [3]: 8 µM
MIC [4]: 32 µM
MIC [5]: 8 µM
MIC [6]: 16 µM
Substance: H-PWRLSLRL-OH

MIC [1]: 8 µM
MIC [2]: 32 µM
MIC [3]: 16 µM
MIC [4]: 64 µM
MIC [5]: 16 µM
MIC [6]: 16 µM
Substance: H-PFRLSLRL-OH

MIC [1]: 8 µM
MIC [2]: 32 µM
MIC [3]: 8 µM
MIC [4]: 32 µM
MIC [5]: 8 µM
MIC [6]: 16 µM
Substance: H-PWRLRLHL-OH

From ChEMBL document CHEMBL4814067, “An optimized analog of antimicrobial peptide Jelleine-1 shows enhanced antimicrobial activity against multidrug resistant P. aeruginosa and negligible toxicity in vitro and in vivo” (Eur J Med Chem, 2021)
